In brackets after ≈: the same amount, converted by molar mass. Like-named read-outs stand apart in the source and are kept apart here.
How the values were obtained:
C. neoformans = assay: broth microdilution susceptibility testing according to EUCAST; assay type: cell-based, Cryptococcus neoformans
Source text: (§1) To identify encoded A. fumigatus FcyB, FcyA, Uprt, Uk and CntA activities in further fungal species, it was searched for A. fumigatus orthologs in biotechnology-relevant species (Aspergillus niger, Aspergillus oryzae, P. chrysogenum, Komagataella phaffii alias Pichia pastoris, S. cerevisiae, Trichoderma reesei) and in virulence-relevant species (Candida albicans, Cryptococcus neoformans, F. oxysporum). Orthologs to A. fumigatus proteins with an overall identity 40% were considered as putative orthologs if activities could be confirmed by susceptibility testing following a broth microdilution based method according to EUCAST (see Table 10).

C. albicans = assay: as above; assay type: cell-based, Candida albicans
Source text: as §1

A. niger = assay: as above; assay type: cell-based, Aspergillus niger
Source text: as §1

A. fumigatus = assay: as above; assay type: cell-based, Aspergillus fumigatus
Source text: as §1

A. oryzae = assay: as above; assay type: cell-based, Aspergillus oryzae
Source text: as §1

T. reesei = assay: as above; assay type: cell-based, Trichoderma reesei
Source text: as §1

S. cersvisiae = assay: as above; assay type: cell-based, S. cerevisiae
Source text: as §1

P. chrysogenum = assay: as above; assay type: cell-based, Penicillium chrysogenum
Source text: as §1

P. pastoris = assay: as above; assay type: cell-based, Komagataella phaffii alias Pichia pastoris
Source text: as §1

F. oxysporum = assay: as above; assay type: cell-based, Fusarium oxysporum
Source text: as §1

[1] = system: A. fumigatus wt (A1160P+); assay: plate growth assay based susceptibility testing on solid AMM; assay type: cell-based, Aspergillus fumigatus; conditions: for pH dependence of activity: A. fumigatus
Experimental: (§2) pH 5 transcriptionally activates fcyB mediated uptake of 5FC. […] Inactivation of fcyB leads to resistance at 10 μg/ml 5FC at pH 5. Inactivation of fcyB leads to resistance on AMM (AMM Composition: 55.5 mM D-glucose, 20.0 mM ammonium tartrate, 7 mM KCl, 2.1 mM MgSO4 x 7H2O, 11.2 mM KH2PO4, 0.09 μM Na2B4O7 x 10H2O, 1 μM CuSO4 x 5H2O, 10 μM FeSO4 x 7H2O, 4.5 μM MnSO4 x 4H2O, 3.1 μM Na2MoO4 x 10H2O, […] ZnSO4 x 7H2O, 0.7% Agar; finally adjusted to pH 6.5 using NaOH before autoclaving) supplemented with 10 μg/ml 5FC and 100 mM citrate buffer pH 5.
(§3) Plate growth assay based susceptibility testing of A. fumigatus and P. chrysogenum was carried out using solid AMM, for F. oxysporum solid PDA was employed. Low pH medium contained 100 mM citrate buffer (pH5), neutral pH medium 100 mM MOPS buffer (pH7). For strains carrying PxylP tunable reporter genes (sGFP, mKate2PER, sGFPMIT, lacZ), 0.5% xylose was supplemented to the medium to induce gene expression.
(§4) Among other fungal species, A. fumigatus is susceptible to 5FC (Te Dorsthorst et al., Antimicrob Agents Chemother 48, 3147-3150 (2004); Te Dorsthorst et al., Antimicrobial agents and chemotherapy 49, 3341-3346 (2005)) and is therefore anticipated to harbor genes encoding CD and UPRT in addition to 5FC uptake. […] To analyze their role in 5FC as well as 5FU activity, fcyA and uprt was inactivated in the A. fumigatus strain A1160P+ (Fraczek, et al., The Journal of antimicrobial chemotherapy 68, 1486-1496 (2013)), termed wt here, using hygromycin and phleomycine resistance based deletion cassettes. Due to the interdependency of 5FC activity and environmental pH (Gsaller et al., Antimicrob Agents Chemother 62 (2018); Te Dorsthorst et al., Antimicrob Agents Chemother 48, 3147-3150 (2004)) the contribution of both enzymes as well as FcyB to 5FC and 5FU activity at both pH5 and pH7 was investigated.

A. fumigatus ΔfcyB = assay: as above; assay type: cell-based, Aspergillus fumigatus; conditions: for growth of ΔfcyB: 100 μg/ml
Experimental: as §2, §3, §4

A. fumigatus ΔfcyA = assay: as above; assay type: cell-based, Aspergillus fumigatus
Experimental: as §3
(§5) Coding sequences of fcyA and uprt were disrupted in wt (A1160P+) using hygromycin B and zeocin resistance cassettes, respectively. Therefore, deletion constructs comprising approximately 1 kb of 5′ and 3′ NTR linked to the central antibiotic resistance cassette were generated using fusion PCR as previously described (Fraczek, et al., The Journal of antimicrobial chemotherapy 68, 1486-1496 (2013)). Correct integration of constructs was confirmed by Southern analysis (see FIG. 14).
Among other fungal species, A. fumigatus is susceptible to 5FC (Te Dorsthorst et al., Antimicrob Agents Chemother 48, 3147-3150 (2004); Te Dorsthorst et al., Antimicrobial agents and chemotherapy 49, 3341-3346 (2005)) and is therefore anticipated to harbor genes encoding CD and UPRT in addition to 5FC uptake. […]

A. fumigatus Δuprt = assay: as above; assay type: cell-based, Aspergillus fumigatus; conditions: for growth of Δuprt strains: 200 μg/ml; for growth after inactivation of uprt: AMM supplemented with 100 μg/ml, pH7
Experimental: Furthermore, 5-FU supplementation inhibits ΔfcyB (see FIG. 4). Inactivation of uprt allows growth of A. fumigatus on AMM supplemented with 100 μg/ml 5FC or 5FU at pH7 (see FIG. 4). At concentrations 10-500 μg/ml 5FC or 5FU, independent of the pH (200 μg/ml 5FC as well as 5FU were also tested and the Δuprt strains grow).
as §3, §5, §4

[2] = system: A. fumigatus with inactivated cntA; assay: growth on AMM supplemented with 5-FUR; assay type: cell-based, Aspergillus fumigatus; conditions: AMM supplemented with 100 μg/ml
[3] = system: A. fumigatus with inactivated uk; assay: growth on AMM supplemented with 5-FUR; assay type: cell-based, Aspergillus fumigatus; conditions: AMM supplemented with 100 μg/ml
[4] = Cryptococcus neoformans, pH 5, read-out: MIC
[5] = Cryptococcus neoformans, pH 7, read-out: MIC
[6] = Candida albicans, pH 5, read-out: MIC
[7] = Candida albicans, pH 7, read-out: MIC
[8] = Aspergillus niger, pH 5, read-out: MIC
[9] = Aspergillus niger, pH 7, read-out: MIC
[10] = Aspergillus fumigatus, pH 5, read-out: MIC
[11] = Aspergillus fumigatus, pH 7, read-out: MIC
[12] = Aspergillus oryzae, pH 5, read-out: MIC
[13] = Aspergillus oryzae, pH 7, read-out: MIC
[14] = Trichoderma reesei, pH 5, read-out: MIC
[15] = Trichoderma reesei, pH 7, read-out: MIC
[16] = Saccharomyces cerevisiae, pH 5, read-out: MIC
[17] = Saccharomyces cerevisiae, pH 7, read-out: MIC
[18] = Penicillium chrysogenum, pH 5, read-out: MIC
[19] = Penicillium chrysogenum, pH 7, read-out: MIC
[20] = Komagataella pastoris, pH 5, read-out: MIC
[21] = Komagataella pastoris, pH 7, read-out: MIC
[22] = Fusarium oxysporum, pH 5, read-out: MIC
[23] = Fusarium oxysporum, pH 7, read-out: MIC
[24] = up to 100 μg/ml, regardless of the pH

`O=c1[nH]cc(F)c(=O)[nH]1` [5FU, 5-fluorouracil] showed an MIC (C. neoformans; [4]) of 6.25 µg/mL (≈ 48 µM), an MIC (C. neoformans; [5]) of 12.5 µg/mL (≈ 96.1 µM) and an MIC (C. albicans; [6]) of 50 µg/mL (≈ 384 µM). For the same compound, the MIC (C. albicans; [7]) was 0.39 µg/mL (≈ 3 µM), the MIC (A. niger; [8]) was 50 µg/mL (≈ 384 µM) and the MIC (A. niger; [9]) was 0.39 µg/mL (≈ 3 µM). For the same compound, the MIC (A. fumigatus; [10]) was 50 µg/mL (≈ 384 µM), the MIC (A. fumigatus; [11]) was > 400 µg/mL and the MIC (A. oryzae; [12]) was 200 µg/mL (≈ 1540 µM). It also gave an MIC (A. oryzae; [13]) of 12.5 µg/mL (≈ 96.1 µM), an MIC (T. reesei; [14]) of 100 µg/mL (≈ 769 µM) and an MIC (T. reesei; [15]) of 0.39 µg/mL (≈ 3 µM). The MIC (S. cersvisiae; [16]) was 0.8 µg/mL (≈ 6.15 µM), the MIC (S. cersvisiae; [17]) was 100 µg/mL (≈ 769 µM) and the MIC (P. chrysogenum; [18]) was 3.12 µg/mL (≈ 24 µM). The MIC (P. chrysogenum; [19]) was 3.12 µg/mL (≈ 24 µM), the MIC (P. pastoris; [20]) was 0.39 µg/mL (≈ 3 µM) and the MIC (P. pastoris; [21]) was > 400 µg/mL. The MIC (F. oxysporum; [22]) was 400 µg/mL (≈ 3080 µM), the MIC (F. oxysporum; [23]) was > 400 µg/mL and the growth of wt ([1]; 100 μg/ml, pH5 as well as pH7) was “blocked growth”. The “pH dependence of activity” value [1] was “pH independent”, the “concentrations that fully inhibit A. fumigatus growth” value ([1]; typically, AMM) was > 100 µg/mL and the “growth of ΔfcyB” value (A. fumigatus ΔfcyB; pH5 as well as pH7) was “blocked growth”. The “effect of supplementation on ΔfcyB” value (A. fumigatus ΔfcyB; solid Aspergillus minimal medium, FIG. 4) was “inhibits”, the “growth of ΔfcyA” value (A. fumigatus ΔfcyA; 100 μg/ml, pH5 as well as pH7) was “blocked growth” and the “resistance of Δuprt” value (A. fumigatus Δuprt; 100 μg/ml, pH5 as well as pH7) was “high resistance”. For the same compound, the “growth of Δuprt strains” value (A. fumigatus Δuprt) was “grow” and the “growth after inactivation of uprt” value (A. fumigatus Δuprt) was “allows growth”.

Compound `Nc1nc(=O)[nH]cc1F` [5FC, 5-flucytosine] has an MIC (C. neoformans; pH 5) of 0.39 µg/mL (≈ 3.02 µM), an MIC (C. neoformans; pH 7) of 25 µg/mL (≈ 194 µM) and an MIC (C. albicans; pH 5) of 0.39 µg/mL (≈ 3.02 µM). It also gave an MIC (C. albicans; pH 7) of 0.39 µg/mL (≈ 3.02 µM), an MIC (A. niger; pH 5) of 0.39 µg/mL (≈ 3.02 µM) and an MIC (A. niger; pH 7) of 6.25 µg/mL (≈ 48.4 µM). The MIC (A. fumigatus; pH 5) was 0.39 µg/mL (≈ 3.02 µM), the MIC (A. fumigatus; pH 7) was 400 µg/mL (≈ 3100 µM) and the MIC (A. oryzae; pH 5) was 0.39 µg/mL (≈ 3.02 µM). The MIC (A. oryzae; pH 7) was 400 µg/mL (≈ 3100 µM), the MIC (T. reesei; pH 5) was >400 µg/mL and the MIC (T. reesei; pH 7) was >400 µg/mL. It also gave an MIC (S. cersvisiae; pH 5) of 0.39 µg/mL (≈ 3.02 µM), an MIC (S. cersvisiae; pH 7) of 0.39 µg/mL (≈ 3.02 µM) and an MIC (P. chrysogenum; pH 5) of 0.39 µg/mL (≈ 3.02 µM). It also gave an MIC (P. chrysogenum; pH 7) of 3.12 µg/mL (≈ 24.2 µM), an MIC (P. pastoris; pH 5) of 0.39 µg/mL (≈ 3.02 µM) and an MIC (P. pastoris; pH 7) of 0.39 µg/mL (≈ 3.02 µM). For the same compound, the MIC (F. oxysporum; pH 5) was >400 µg/mL, the MIC (F. oxysporum; pH 7) was >400 µg/mL and the “susceptibility of WT isolate” value ([1]; 10 μg/ml, AMM with 100 mM citrate buffer pH 5) was “highly susceptible”. For the same compound, the “pH dependence of activity” value [1] was “much more active at pH5”, the “level that blocked wt growth” value ([1]; wt, pH5, plate growth) was ≥ 1 µg/mL and the “level required to block wt growth” value ([1]; wt, pH7, plate growth) was 100 µg/mL. For the same compound, the “resistance after inactivation of fcyB” value (A. fumigatus ΔfcyB; 10 μg/ml, pH 5, AMM) was “resistance”, the “growth of ΔfcyB” value (A. fumigatus ΔfcyB; pH5) was “not able to grow” and the “growth of ΔfcyB” value (A. fumigatus ΔfcyB; pH7) was “severe growth inhibition”. The “resistance of ΔfcyA” value (A. fumigatus ΔfcyA; [24]) was “full resistance”, the “growth of Δuprt strains” value (A. fumigatus Δuprt) was “grow” and the “growth after inactivation of uprt” value (A. fumigatus Δuprt) was “allows growth”. For the same compound, the “resistance of Δuprt” value (A. fumigatus Δuprt; [24]) was “full resistance”.

`O=c1[nH]c(=O)n([C@@H]2O[C@H](CO)[C@@H](O)[C@H]2O)cc1F` [5FUR, 5-fluorouridine] gave an MIC (C. neoformans; [4]) of 3.12 µg/mL (≈ 11.9 µM), an MIC (C. neoformans; [5]) of 12.5 µg/mL (≈ 47.7 µM) and an MIC (C. albicans; [6]) of 0.39 µg/mL (≈ 1.49 µM). For the same compound, the MIC (C. albicans; [7]) was 0.39 µg/mL (≈ 1.49 µM), the MIC (A. niger; [8]) was 0.8 µg/mL (≈ 3.05 µM) and the MIC (A. niger; [9]) was 0.39 µg/mL (≈ 1.49 µM). For the same compound, the MIC (A. fumigatus; [10]) was 6.25 µg/mL (≈ 23.8 µM), the MIC (A. fumigatus; [11]) was > 400 µg/mL and the MIC (A. oryzae; [12]) was 6.25 µg/mL (≈ 23.8 µM). The MIC (A. oryzae; [13]) was 12.5 µg/mL (≈ 47.7 µM), the MIC (T. reesei; [14]) was 0.39 µg/mL (≈ 1.49 µM) and the MIC (T. reesei; [15]) was 0.39 µg/mL (≈ 1.49 µM). For the same compound, the MIC (S. cersvisiae; [16]) was 6.25 µg/mL (≈ 23.8 µM), the MIC (S. cersvisiae; [17]) was 25 µg/mL (≈ 95.3 µM) and the MIC (P. chrysogenum; [18]) was 3.12 µg/mL (≈ 11.9 µM). For the same compound, the MIC (P. chrysogenum; [19]) was 3.12 µg/mL (≈ 11.9 µM), the MIC (P. pastoris; [20]) was 0.39 µg/mL (≈ 1.49 µM) and the MIC (P. pastoris; [21]) was > 400 µg/mL. The MIC (F. oxysporum; [22]) was > 400 µg/mL, the MIC (F. oxysporum; [23]) was > 400 µg/mL and the “pH dependence of activity” value [1] was “pH independent”. For the same compound, the “concentrations that significantly inhibit A. fumigatus growth” value ([1]; AMM) was > 100 µg/mL, the “resistance after inactivation of cntA” value [2] was “significantly increases resistance” and the “resistance after inactivation of uk” value [3] was “increases resistance”.
